Patent US9388141B2, “Acylaminocycloalkyl compounds suitable for treating disorders that respond to modulation of dopamine D3 receptor” (AbbVie Deutschland GmbH & Co. KG, priority 2013, dated 2016)

Assays:
[1] = biological target: T1, human dopamine D3 receptors (Homo sapiens, UniProt P35462); test: Dopamine D3 receptor binding, [125I]-iodosulpride displacement; conditions: membranes of HEK-293 cells with human D3 receptors, 0.1 nM [125I]-iodosulpride
T1 construct: expressed in transfected cells; host or cells: HEK-293
T1 sequence (P35462 whole entry): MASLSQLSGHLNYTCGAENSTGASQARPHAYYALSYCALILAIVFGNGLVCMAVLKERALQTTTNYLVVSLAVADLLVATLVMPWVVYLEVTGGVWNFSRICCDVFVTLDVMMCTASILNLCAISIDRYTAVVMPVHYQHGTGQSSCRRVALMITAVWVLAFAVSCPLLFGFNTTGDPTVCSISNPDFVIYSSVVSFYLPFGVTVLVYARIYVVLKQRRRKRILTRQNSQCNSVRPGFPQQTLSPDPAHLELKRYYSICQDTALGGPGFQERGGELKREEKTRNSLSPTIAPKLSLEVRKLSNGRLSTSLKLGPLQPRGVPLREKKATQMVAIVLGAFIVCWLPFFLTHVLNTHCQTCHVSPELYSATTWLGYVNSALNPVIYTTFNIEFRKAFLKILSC
Method: (§1) The substance to be tested was either dissolved in methanol/Chremophor® (BASF SE) or in dimethyl sulfoxide and then diluted with water to the desired concentration.
(§2) Each assay mixture was run in triplicate. • The incubation buffer contained 50 mM tris, 120 mM NaCl, 5 mM KCl, 2 mM CaCl2, 2 mM MgCl2 and 0.1% bovine serum albumin, 10 μM quinolone and 0.1% ascorbic acid (prepared fresh daily). […] Each assay mixture was run in triplicate. • The incubation buffer contained 50 mM tris, 120 mM NaCl, 5 mM KCl, 2 mM CaCl2, 2 mM MgCl2 and 0.1% bovine serum albumin. The buffer was adjusted to pH 7.4 with HCl. c) Measurement and Analysis: • After having been incubated at 25° C. for 60 minutes, the assay mixtures were filtered through a Whatman GF/B glass fiber filter under vacuum using a cell collecting device. The filters were transferred to scintillation viols using a filter transfer system. After 4 ml of Ultima Gold® (Packard) have been added, the samples were shaken for one hour and the radioactivity was then counted in a Beta-Counter (Packard, Tricarb 2000 or 2200CA).

[2] = biological target: T2, human dopamine D2L receptors (long isoform) (Homo sapiens, UniProt P14416); test: Dopamine D2L receptor binding, [125I]-iodospiperone displacement; conditions: selectivity ratio Ki (D2L)/Ki (D3)
T2 construct: expressed in transfected cells; host or cells: HEK-293
T2 sequence (P14416 whole entry, canonical isoform): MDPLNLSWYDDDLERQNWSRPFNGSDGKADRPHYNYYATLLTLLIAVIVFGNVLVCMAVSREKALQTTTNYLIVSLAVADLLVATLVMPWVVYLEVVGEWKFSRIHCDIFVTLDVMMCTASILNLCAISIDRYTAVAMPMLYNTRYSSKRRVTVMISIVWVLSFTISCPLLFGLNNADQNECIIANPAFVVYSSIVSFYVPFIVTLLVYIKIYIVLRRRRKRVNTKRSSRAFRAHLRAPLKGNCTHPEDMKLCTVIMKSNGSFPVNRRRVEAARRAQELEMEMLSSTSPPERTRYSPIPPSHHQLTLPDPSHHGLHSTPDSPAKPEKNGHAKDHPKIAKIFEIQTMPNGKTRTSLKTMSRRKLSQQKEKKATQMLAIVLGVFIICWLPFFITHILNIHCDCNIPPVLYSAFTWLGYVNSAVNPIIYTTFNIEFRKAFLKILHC
Method: as §1, §2

[3] = Determination of the microsomal half-life / microsomal clearance; type: in vitro ADME; conditions: human liver microsomes, 0.5 μM test substance, 0.25 mg microsomal protein/ml, pH 7.4, 37° C.
Method: The metabolic stability of the compounds of the invention was determined in the following assay.
The test substances were incubated in a concentration of 0.5 μM as follows:
0.5 μM test substance are preincubated together with liver microsomes from different species (from rat, human or other species) (0.25 mg of microsomal protein/ml) in 0.05 M potassium phosphate buffer of pH 7.4 in microtiter plates at 37° C. for 5 min. The reaction is started by adding NADPH (1 mg/mL). After 0, 5, 10, 15, 20 and 30 min, 50 μl aliquots are removed, and the reaction is immediately stopped and cooled with the same volume of acetonitrile. The samples are frozen until analyzed. The remaining concentration of undegraded test substance is determined by MSMS. The half-life (T1/2) is determined from the gradient of the signal of test substance/unit time plot, it being possible to calculate the half-life of the test substance, assuming first order kinetics, from the decrease in the concentration of the compound with time. The microsomal clearance (mCl) is calculated from mCl=1n2/T1/2/(content of microsomal protein in mg/ml)×1000 [[…]] (modified from references: Di, The Society for Biomoleculur Screening, 2003, 453-462; Obach, DMD, 1999 vol 27. N 11, 1350-1359).

Compound | Ki [1] | D2/D3, Ki (D2L)/Ki (D3) [2] | Human mCl [3]
CC(C)(C)c1nc(C2CCC2)cc(N2CCN(CC[C@H]3CC[C@@H](NC(=O)[C@H]4CC[C@@H](O)CC4)CC3)CC2)n1.O=C(O)C(F)(F)F [Compound 15, Cis-N-[cis-4-[2-[4-(2-tert-butyl-6-cyclobutyl-pyrimidin-4-yl)piperazin-1-yl]ethyl]cyclohexyl]-4-hydroxy-cyclohexanecarboxamide; 2,2,2-trifluoroacetic acid] | < 10 nM | +++ (+++>50) | ∘ (∘: >120 μl min^−1 mg^−1)
COCCc1cc(N2CCN(CC[C@H]3CC[C@@H](NC(=O)[C@H]4CC[C@@H](O)CC4)CC3)CC2)nc(C(C)(C)C)n1 [Compound 5, Cis-N-[cis-4-[2-[4-[2-tert-butyl-6-(2-methoxyethyl)pyrimidin-4-yl]piperazin-1-yl]ethyl]cyclohexyl]-4-hydroxy-cyclohexanecarboxamide] | < 50 nM | ++ (++>20) | ∘ (∘: >120 μl min^−1 mg^−1)
CC(C)(C)c1nc(C2CCC2)cc(N2CCN(CC[C@H]3CC[C@H](NC(=O)[C@H]4C[C@@H](O)C4)CC3)CC2)n1 [Compound 13, Cis-N-[trans-4-[2-[4-(2-tert-butyl-6-cyclobutyl-pyrimidin-4-yl)piperazin-1-yl]ethyl]cyclohexyl]-3-hydroxy-cyclobutanecarboxamide] | < 10 nM | ++ (++>20) | ∘ (∘: >120 μl min^−1 mg^−1)
COCCc1cc(N2CCN(CCC3CCC(NC(=O)C4CCC(O)CC4)CC3)C[C@H]2C)nc(C(C)(C)C)n1 (stereo partly drawn) [Compound 33, N-[4-[2-[(3R)-4-[2-tert-butyl-6-(2-methoxyethyl)pyrimidin-4-yl]-3-methyl-piperazin-1-yl]ethyl]cyclohexyl]-4-hydroxy-cyclohexanecarboxamide] | < 50 nM | +++ (+++>50) | + (+: 20-120 μl min^−1 mg^−1)
COCCc1cc(N2CCN(CC[C@H]3C[C@H](NC(=O)C4CCC(O)CC4)C3)CC2)nc(C(C)(C)C)n1 (relative stereo) [Compound 11, N-[trans-3-[2-[4-[2-tert-butyl-6-(2-methoxyethyl)pyrimidin-4-yl]piperazin-1-yl]ethyl]cyclobutyl]-4-hydroxy-cyclohexanecarboxamide] | < 10 nM | ++ (++>20) | + (+: 20-120 μl min^−1 mg^−1)
CC(C)(C)c1cc(N2CCN(CC[C@H]3CC[C@@H](NC(=O)[C@H]4CC[C@H](O)CC4)CC3)CC2)nc(C(C)(C)C)n1 [Compound 22, trans-N-[cis-4-[2-[4-(2,6-ditert-butylpyrimidin-4-yl)piperazin-1-yl]ethyl]cyclohexyl]-4-hydroxy-cyclohexanecarboxamide] | < 50 nM | +++ (+++>50) | + (+: 20-120 μl min^−1 mg^−1)
CC(C)(C)c1nc(C2CCCC2)cc(N2CCN(CC[C@H]3CC[C@H](NC(=O)[C@H]4CC[C@H](O)CC4)CC3)CC2)n1 [Compound 35, trans-N-[trans-4-[2-[4-(2-tert-butyl-6-cyclopentyl-pyrimidin-4-yl)piperazin-1-yl]ethyl]cyclohexyl]-4-hydroxy-cyclohexanecarboxamide] | < 10 nM | + (+>10) | + (+: 20-120 μl min^−1 mg^−1)
COCCc1cc(N2CCN(CC[C@H]3CC[C@H](NC(=O)[C@H]4CC[C@H](O)CC4)CC3)C[C@H]2C)nc(C(C)(C)C)n1 [Compound 34, trans-N-[trans-4-[2-[(3R)-4-[2-tert-butyl-6-(2-methoxyethyl)pyrimidin-4-yl]-3-methyl-piperazin-1-yl]ethyl]cyclohexyl]-4-hydroxy-cyclohexanecarboxamide] | < 10 nM | +++ (+++>50) | + (+: 20-120 μl min^−1 mg^−1)
CC(C)(C)c1nc(C2CCC2)cc(N2CCN(CC[C@H]3C[C@H](NC(=O)[C@H]4CC[C@@H](O)CC4)C3)CC2)n1.O=C(O)C(F)(F)F [Compound 16, Cis-N-[trans-3-[2-[4-(2-tert-butyl-6-cyclobutyl-pyrimidin-4-yl)piperazin-1-yl]ethyl]cyclobutyl]-4-hydroxy-cyclohexanecarboxamide; 2,2,2-trifluoroacetic acid] | < 10 nM | ++ (++>20) | ∘ (∘: >120 μl min^−1 mg^−1)
CC(C)(C)c1nc(C(F)F)cc(N2CCN(CCC3CCC(NC(=O)C4CCC(O)CC4)CC3)CC2)n1 (stereo not shown) [Compound 29, N-[4-[2-[4-[2-tert-butyl-6-(difluoromethyl)pyrimidin-4-yl]piperazin-1-yl]ethyl]cyclohexyl]-4-hydroxy-cyclohexanecarboxamide] | < 10 nM | + (+>10) | + (+: 20-120 μl min^−1 mg^−1)
COCCc1cc(N2CCN(CC[C@H]3CC[C@H](NC(=O)[C@H]4CC[C@H](O)CC4)CC3)CC2)nc(C(C)(C)C)n1 [Compound 2, trans-N-[trans-4-[2-[4-[2-tert-butyl-6-(2-methoxyethyl)pyrimidin-4-yl]piperazin-1-yl]ethyl]cyclohexyl]-4-hydroxy-cyclohexanecarboxamide] | < 10 nM | ++ (++>20) | + (+: 20-120 μl min^−1 mg^−1)
CC(C)(C)c1nc(C2CCC2)cc(N2CCN(CC[C@H]3C[C@H](NC(=O)[C@H]4CC[C@H](O)CC4)C3)CC2)n1 [Compound 9, Trans-N-[trans-3-[2-[4-(2-tert-butyl-6-cyclobutyl-pyrimidin-4-yl)piperazin-1-yl]ethyl]cyclobutyl]-4-hydroxy-cyclohexanecarboxamide] | < 10 nM | +++ (+++>50) | + (+: 20-120 μl min^−1 mg^−1)
CC(C)(C)c1cc(N2CCN(CC[C@H]3CC[C@H](NC(=O)[C@H]4CC[C@H](O)CC4)CC3)CC2)nc(C(C)(C)C)n1 [Compound 20, trans-N-[trans-4-[2-[4-(2,6-ditert-butylpyrimidin-4-yl)piperazin-1-yl]ethyl]cyclohexyl]-4-hydroxy-cyclohexanecarboxamide] | < 10 nM | ++ (++>20) | + (+: 20-120 μl min^−1 mg^−1)
COCCc1cc(N2CCN(CC[C@H]3C[C@H](NC(=O)[C@H]4CC[C@H](O)CC4)C3)CC2)nc(C(C)(C)C)n1.O=C(O)C(F)(F)F [Compound 7, Trans-N-[trans-3-[2-[4-[2-tert-butyl-6-(2-methoxyethyl)pyrimidin-4-yl]piperazin-1-yl]ethyl]cyclobutyl]-4-hydroxy-cyclohexanecarboxamide; 2,2,2-trifluoroacetic acid] | < 10 nM | +++ (+++>50) | + (+: 20-120 μl min^−1 mg^−1)
COCCc1cc(N2CCN(CC[C@H]3CC[C@@H](NC(=O)C4CC(O)(C(F)(F)F)C4)CC3)CC2)nc(C(C)(C)C)n1 (relative stereo) [Compound 26, N-[cis-4-[2-[4-[2-tert-butyl-6-(2-methoxyethyl)pyrimidin-4-yl]piperazin-1-yl]ethyl]cyclohexyl]-3-hydroxy-3-(trifluoromethyl)cyclobutanecarboxamide] | < 50 nM | +++ (+++>50) | ++ (++: <20 μl min^−1 mg^−1)
COCc1cc(N2CCN(CC[C@H]3CC[C@H](NC(=O)[C@H]4C[C@@H](O)C4)CC3)CC2)nc(C(C)(C)C)n1 [Compound 40, cis-N-[trans-4-[2-[4-[2-tert-butyl-6-(methoxymethyl)pyrimidin-4-yl]piperazin-1-yl]ethyl]cyclohexyl]-3-hydroxy-cyclobutanecarboxamide] | – | – | + (+: 20-120 μl min^−1 mg^−1)
